According to the supplement of paper PMC4862054:

Columns and labels:
Test in all cases: normalised viability (% of control), CellTiter-Blue; higher = more viable cells (about 100 = DMSO control)
[1] = system: MDA-MB-468; details: 10 nM; incubation time: 72 h
Protocol: (§1)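 DSRT, CellTiter-Blue viability, 72 h incubation. Signal is normalised to DMSO and benzethonium chloride controls. Value is the normalised response at dose 3.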

[2] = system: MFM-223; details: 10 nM; incubation time: 72 h
Protocol: as §1

[3] = system: HCC1937; details: 10 nM; incubation time: 72 h
Protocol: as §1

[4] = system: DU-4475; details: 1 nM; incubation time: 72 h
Protocol: as §1

[5] = system: CAL-85-1; details: 1 nM; incubation time: 72 h
Protocol: as §1

[6] = system: Hs578T; details: 10 nM; incubation time: 72 h
Protocol: as §1

[7] = system: BT-474; details: 10 nM; incubation time: 72 h
Protocol: as §1

[8] = system: MDA-MB-436; details: 10 nM; incubation time: 72 h
Protocol: as §1

[9] = system: CAL-120; details: 10 nM; incubation time: 72 h
Protocol: as §1

[10] = system: MDA-MB-468; details: incubation time: 72 h
In short: (§2)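 Compound dissolved in 5 µl medium was pre-loaded into 384-well plates, and breast cancer cell lines in 20 µl suspension were seeded on top and incubated 72 h. After adding 2.5 µl CellTiter-Blue reagent for 2 h at 37 °C, fluorescence was read at 560/590 nm. Plates were normalised to vehicle (100) and a positive kill control (0), with Z'-factor quality control. Each value is normalised viability at a single listed concentration from the series.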

[11] = system: MFM-223; details: incubation time: 72 h
In short: as §2

[12] = system: CAL-148; details: incubation time: 72 h
In short: as §2

[13] = system: HCC1937; details: incubation time: 72 h
In short: as §2

[14] = system: DU-4475; details: incubation time: 72 h
In short: as §2

[15] = system: MDA-MB-231; details: incubation time: 72 h
In short: as §2

[16] = system: CAL-85-1; details: incubation time: 72 h
In short: as §2

[17] = system: Hs578T; details: incubation time: 72 h
In short: as §2

[18] = system: HCC1599; details: incubation time: 72 h
In short: as §2

[19] = system: CAL-51; details: incubation time: 72 h
In short: as §2

[20] = system: BT-474; details: incubation time: 72 h
In short: as §2

[21] = system: MDA-MB-436; details: incubation time: 72 h
In short: as §2

[22] = system: HDQ-P1; details: incubation time: 72 h
In short: as §2

[23] = system: BT-549; details: incubation time: 72 h
In short: as §2

[24] = system: SK-BR-3; details: incubation time: 72 h
In short: as §2

[25] = system: CAL-120; details: incubation time: 72 h
In short: as §2

[26] = system: MDA-MB-453; details: incubation time: 72 h
In short: as §2

[27] = system: HCC1143; details: incubation time: 72 h
In short: as §2

COc1cc(CCc2cc(NC(=O)c3ccc(N4CC(C)NC(C)C4)cc3)n[nH]2)cc(OC)c1 (stereo unspecified) [AZD4547]
Details	normalised viability [%]
[1]	108
[2]	59.2
[3]	91.8
[4]	100
[5]	101
[6]	92.7
[7]	131
[8]	102
[9]	94

normalised viability [%]
Details	0.3 nM	1 nM	3 nM	10 nM	100 nM	1000 nM
[10]	–	113	–	–	105	105
[11]	–	91	–	–	50.4	12.3
[12]	97.9	–	93.7	89.7	–	–
[13]	–	157	–	–	103	115
[14]	92.3	–	84	103	–	–
[15]	–	110	–	–	105	113
[16]	91	–	90	94.6	–	–
[17]	–	102	–	–	91.2	122
[18]	–	92.5	–	–	77.4	18.8
[19]	120	–	107	99.8	–	–
[20]	–	121	–	–	119	128
[21]	–	105	–	–	104	109
[22]	113	–	120	117	–	–
[23]	–	89.1	–	–	105	112
[24]	–	112	–	–	113	105
[25]	–	86	–	–	80.4	65.1
[26]	119	–	91.5	95.8	–	–
[27]	–	94.3	–	–	87.9	93

Cn1cc(CNCC2CCN(c3ncc(C(=O)NO)cn3)CC2)c2ccccc21
Details	normalised viability [%]
[1]	78.3
[2]	74.7
[3]	76.4
[4]	89
[5]	90.7
[6]	86.8
[7]	78.2
[8]	77.9
[9]	58.3

normalised viability [%]
Details	0.3 nM	1 nM	3 nM	10 nM	100 nM	1000 nM
[10]	–	107	–	–	38	14.5
[11]	–	88.9	–	–	28.5	8.06
[12]	95.6	–	89.2	53.9	–	–
[13]	–	69.2	–	–	31.8	14.7
[14]	88.5	–	93.7	60	–	–
[15]	–	103	–	–	17.7	5.23
[16]	90	–	79.9	65.1	–	–
[17]	–	128	–	–	39.3	5.1
[18]	–	101	–	–	28	14.5
[19]	116	–	115	97.2	–	–
[20]	–	97.9	–	–	8.46	7.06
[21]	–	94.5	–	–	80.6	17.7
[22]	104	–	88.9	88.6	–	–
[23]	–	78	–	–	75.1	12
[24]	–	86.2	–	–	8.01	2.99
[25]	–	88.7	–	–	12.5	3.89
[26]	113	–	63.6	25.8	–	–
[27]	–	83	–	–	23.6	11.1
